Source: the NIST ThermoML archive (doi:10.1016/j.jct.2017.03.016)
Numbers after ± are expanded uncertainties.

Experiments:
[1] = refractive index (Na D-line) (dimensionless); conditions: 101.33 kPa, Liquid, Standard Abbe refractometry
[2] = for surface tension liquid-gas: Maximal bubble pressure; for mass density: 101.33 kPa, Liquid, Vibrating tube method

In the case of CCn1cc[n+](CCOC)c1.N#C[N-]C#N [1-ethyl-3-(2-methoxyethyl)imidazolium dicyanamide], the refractive index ([1]; 298.15 K) is reported as 1.5053 ± 0.0031, the refractive index ([1]; 303.15 K) is reported as 1.504 ± 0.0031 and the refractive index ([1]; 308.15 K) is reported as 1.5028 ± 0.0031. It also gave a refractive index ([1]; 313.15 K) of 1.5017 ± 0.0031, a refractive index ([1]; 318.15 K) of 1.5 ± 0.0031 and a refractive index ([1]; 323.15 K) of 1.4989 ± 0.0031. For the same compound, the refractive index ([1]; 328.15 K) was 1.4977 ± 0.0031, the refractive index ([1]; 333.15 K) was 1.496 ± 0.0031 and the refractive index ([1]; 338.15 K) was 1.4946 ± 0.0031. It also gave a surface tension liquid-gas ([2]; 298.15 K) of 51 ± 0.5 mN/m, a mass density ([2]; 298.15 K) of 1113.6 ± 2.3 kg/m3 and a surface tension liquid-gas ([2]; 303.15 K) of 50.7 ± 0.5 mN/m. For the same compound, the mass density ([2]; 303.15 K) was 1110.21 ± 2.3 kg/m3, the surface tension liquid-gas ([2]; 308.15 K) was 50.4 ± 0.5 mN/m and the mass density ([2]; 308.15 K) was 1106.83 ± 2.3 kg/m3. The surface tension liquid-gas ([2]; 313.15 K) was 50.1 ± 0.5 mN/m, the mass density ([2]; 313.15 K) was 1103.48 ± 2.3 kg/m3 and the surface tension liquid-gas ([2]; 318.15 K) was 49.8 ± 0.5 mN/m. For the same compound, the mass density ([2]; 318.15 K) was 1100.15 ± 2.3 kg/m3, the surface tension liquid-gas ([2]; 323.15 K) was 49.5 ± 0.5 mN/m and the mass density ([2]; 323.15 K) was 1096.84 ± 2.3 kg/m3. For the same compound, the surface tension liquid-gas ([2]; 328.15 K) was 49.3 ± 0.5 mN/m, the mass density ([2]; 328.15 K) was 1093.53 ± 2.3 kg/m3 and the surface tension liquid-gas ([2]; 333.15 K) was 49.1 ± 0.5 mN/m. The mass density ([2]; 333.15 K) was 1090.26 ± 2.3 kg/m3, the surface tension liquid-gas ([2]; 338.15 K) was 48.8 ± 0.5 mN/m and the mass density ([2]; 338.15 K) was 1087 ± 2.3 kg/m3.
